Patent publication US20240002846A1, “COMPOSITIONS AND METHODS FOR THE DIAGNOSIS AND TREATMENT OF ITCH” (Duke University, priority 2020, published 2024)
Entries after “also recorded” stand apart in the source; their conditions may differ.

Experiments:
mice [1] = experiment: Scratching behavior after i.d. injection into dorsal neck skin; format: in vivo, mouse; conditions: for scratching behavior (itch) induced by i.d. injection of lipid: i.d. into dorsal neck, LPA 18:1 500 μg, LPC 50-500 μg, LPC species at the same dose
Experimental: (§1) Behavioral assessment. Mice were shaved at the dorsal neck 1 d before experiments. Mice were allowed to acclimate to a Plexiglas chamber for at least 30 min before testing and received intradermal (i.d.) injection of 50 μL of LPA 18:1, LPC, LPC 14:0, LPC 16:0, LPC 18:0, LPC 18:1, miR-146a mimic, miR-146a scramble, ATP or vehicles through a 30-gauge needle (Becton Dickinson, Franklin Lakes, NJ) into the neck skin. After injections, mice were immediately placed back to the chamber, and the scratching behavior was recorded by a Panasonic video camera for 30 min. Hind limb scratching behavior directed toward the injected area at the nape of neck was observed. One scratch is defined as a lifting of the hind limb toward the injection site and then a replacing of the limb back to the floor, regardless of how many scratching strokes take place between those two movements. Behavioral analysis was conducted by observers blinded to genotype.

mouse keratinocytes = experiment: Ca2+ imaging in cultured mouse keratinocytes; format: cell-based; conditions: for LPA (18:1) induced Ca2+ influx: up to 30 μM; for effect on LPC 18:1 (10 μM)-induced Ca2+ influx (GPCR-signaling inhibitors): inhibitor 10 μM
Experimental: Basal keratinocytes were separated from the cornified sheets by filtration through a […] cell strainer. Keratinocytes were plated on collagen I-coated dishes or glass coverslips and grown in EME media (Gibco, Gaithersburg, MD) containing 8% chelex (Bio-rad, Hercules, CA)-treated FBS with the final Ca^2+ adjusted to 0.05 mM, bovine pituitary extract (50 μg/mL), epidermal growth factor (5 ng/mL), and lx antibiotics/antimycotics (Gibco, Gaithersburg, MD) in a humidified incubator with 5% CO2 at 37° C. for 5-7 days until use. To knockdown Trpv4 in isolated keratinocytes from newborn keratinocyte-Trpv4 cKO mice, cells were treated with 4-OH tamoxifen at 500 nM for 72 h.
(§2) In vitro and ex vivo Ca^2+ imaging. […] Ca^2+ imaging of cultured cells in response to chemicals was conducted after loading with 5 μM Fura2-AM (Invitrogen, Waltham, MA) for 45 min after a ratiometric Ca^2+-imaging protocol with 340/380-nm blue light for dual excitation. Ratios of emissions were acquired at 0.5 Hz. ΔR/R0 was determined as the fraction of the increase of a given ratio over baseline ratio divided by baseline ratio. […] Control cells received vehicles.

human keratinocytes = experiment: Ca2+ imaging in cultured human keratinocytes; format: cell-based; conditions: for LPA (18:1) induced Ca2+ influx: up to 30 μM; for effect on LPC 18:1 (10 μM)-induced Ca2+ influx (GPCR-signaling inhibitors): inhibitor 10 μM
Experimental: In brief, surgically discarded foreskin samples, obtained from Duke Children's Hospital in accordance to institutionally approved IRB protocol, were incubated with Dispase (Gibco, Gaithersburg, MD, 4 U/mL) for 12-16 h at 4° C. followed by 0.05% trypsin (Gibco, Gaithersburg, MD) for 10-20 min at 37° C. Cells were maintained in keratinocyte serum-free media (Invitrogen, Waltham, MA) with 5% CO2 at 37° C. and used at passage 2-3.
as §2

hTRPV4 = target: T1, hTRPV4 (Homo sapiens, UniProt Q9HBA0); experiment: Ca2+ imaging in HEK cells transfected with hTRPV4; format: cell-based; conditions: inhibitor 10 μM
T1 construct: expressed in transfected cells; host or cells: HEK293 (ATCC CRL-1573)
T1 sequence (Q9HBA0 whole entry): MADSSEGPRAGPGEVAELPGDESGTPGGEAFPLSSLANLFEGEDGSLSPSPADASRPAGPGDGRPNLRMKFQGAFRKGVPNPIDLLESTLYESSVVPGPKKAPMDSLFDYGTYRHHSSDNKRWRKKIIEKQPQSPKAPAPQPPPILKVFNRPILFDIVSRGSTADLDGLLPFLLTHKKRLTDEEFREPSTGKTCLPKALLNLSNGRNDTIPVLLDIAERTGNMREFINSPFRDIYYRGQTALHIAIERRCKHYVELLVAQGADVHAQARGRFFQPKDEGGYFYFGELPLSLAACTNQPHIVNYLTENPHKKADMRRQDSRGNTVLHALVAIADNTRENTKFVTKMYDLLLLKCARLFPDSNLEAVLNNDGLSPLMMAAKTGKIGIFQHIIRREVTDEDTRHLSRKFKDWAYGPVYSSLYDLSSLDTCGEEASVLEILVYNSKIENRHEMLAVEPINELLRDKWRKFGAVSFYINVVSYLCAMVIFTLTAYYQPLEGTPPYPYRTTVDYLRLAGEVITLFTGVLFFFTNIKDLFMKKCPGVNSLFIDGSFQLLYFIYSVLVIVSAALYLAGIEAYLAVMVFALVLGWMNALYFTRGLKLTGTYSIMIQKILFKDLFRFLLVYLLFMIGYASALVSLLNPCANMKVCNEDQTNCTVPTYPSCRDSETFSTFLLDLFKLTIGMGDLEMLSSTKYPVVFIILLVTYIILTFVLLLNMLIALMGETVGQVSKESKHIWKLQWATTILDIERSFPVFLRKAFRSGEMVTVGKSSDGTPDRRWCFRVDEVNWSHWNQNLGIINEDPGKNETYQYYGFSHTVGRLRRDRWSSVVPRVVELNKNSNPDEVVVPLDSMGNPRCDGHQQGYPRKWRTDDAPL
Experimental: Cell culture and transfection. HEK293 cells (ATCC® CRL-1573) were cultured on poly-D-lysine coated coverslips in 24-well plate containing DMEM media with high-Glucose (Gibco, Gaithersburg, MD) supplemented with 10% fetal bovine serum (FBS, HyClone Laboratories, Logan, UT) and 100 U/mL of penicillin/streptomycin (Gibco, Gaithersburg, MD). Cell cultures were maintained with 5% of CO2 in a humidified incubator at 37° C. HEK cells were transfected with rat or human wild type or mutant TRPV4 channels with EGFP or YFP coupled to their C-termini (1.5 μg of plasmid for excised patch clamp and Ca^2+ imaging and 200 ng for single-channel experiments). The jetPEI™ Polyplus transfection reagent (Polyplus Transfection, New York, NY) for electrophysiology or Lipofectamine™ 2000 Reagent (Invitrogen, Waltham, MA) for Ca^2+ imaging were used for transfections per manufacturer's instructions as previously described (Chen et al. Pain 2014, 155, 2662-2672; Morales-Lazaro et al. Nat. Commun. 2016, 7, 13092). To investigate whether miR-146a can directly activate TRPV1 channels or indirectly via TLRs, HEK293 cells were transfected with rTRPV1 or co-transfected rTRPV1 with rTLR7, rTLR2, or rTLR6 (Addgene, Watertown, MA) for Ca^2+ imaging assay. Control cells were transfected with GFP or YFP.
In vitro and ex vivo Ca^2+ imaging. Routine procedures were followed for Ca^2+ imaging in cultured DRG sensory neurons, epidermal keratinocytes, and HEK cells (Chen et al. J. Biol. Chem. 2016, 291, 10252-10262; Chen et al. Pain 2014, 155, 2662-2672). Ca^2+ imaging of cultured cells in response to chemicals was conducted after loading with 5 μM Fura2-AM (Invitrogen, Waltham, MA) for 45 min after a ratiometric Ca^2+-imaging protocol with 340/380-nm blue light for dual excitation. Ratios of emissions were acquired at 0.5 Hz. ΔR/R0 was determined as the fraction of the increase of a given ratio over baseline ratio divided by baseline ratio. To investigate the effects of the TRPV4 inhibitors GSK205 or HC067047, the PLC inhibitor U73122, the Gag G Protein inhibitor BIM46187, the Gβγ G protein inhibitor Gallein, the TRPV1 inhibitor SB366791, the TRPA1 inhibitor HC030031, and IPP for TRPV3, on LPA-induced Ca^2+ influx, LPC-induced Ca^2+ influx, or miR-146α-induced Ca^2+ influx, cells were incubated with the inhibitors for 15 min before stimulation. Control cells received vehicles.

mice [2] = experiment: Effect of inhibitor pretreatment on LPA-, LPC- or miR-146a-induced scratching behavior; format: in vivo, mouse; conditions: for effect on scratching evoked by i.d. miR-146a (4 nmol) (TLR inhibitors): i.p. 10 mg/kg
Experimental: as §1, with “Mice were allowed to acclimate to a Plexiglas chamber for at least 30 min before testing and received intradermal (i.d.) injection of 50 μL of LPA 18:1, LPC, LPC 14:0, LPC 16:0, LPC 18:0, LPC 18:1, miR-146a mimic, miR-146a scramble, ATP or vehicles through a 30-gauge needle (Becton Dickinson, Franklin Lakes, NJ) into the neck skin.” left out
Control animals received the same volume of vehicles.
Lumbar puncture was made with a 30G-needle and drugs at 5 μL of volume were delivered. Scratching behavior assay was started approximately 2 weeks after resiniferatoxin treatment.

Molecule: lysophosphatidic acid [LPA (18:1)]
- scratch bouts (mice [1]; i.d. 500 μg into dorsal neck, WT mice): 58 scratch bouts in 30 min
- scratching behavior (itch) induced by i.d. injection of lipid (mice [1]): elicited moderate scratching; also recorded: induced itch
- LPA (18:1) induced Ca2+ influx (mouse keratinocytes): not dose-dependent and was less robust than that of LPC
- LPA (18:1) induced Ca2+ influx (mouse keratinocytes; listed as LPA): much reduced
- LPA (18:1) induced Ca2+ influx (human keratinocytes): not dose-dependent and was less robust than that of LPC
- LPA (18:1) induced Ca2+ influx (human keratinocytes; listed as LPA): much reduced

Molecule: LPC 14:0
- scratching behavior (itch) induced by i.d. injection of lipid (mice [1]): caused robust itch

Molecule: N[C@@H](CSSC[C@H](N)C(=O)N1CCn2cc(-c3ccccc3)nc2[C@@H]1CC1CCCCC1)C(=O)N1CCn2cc(-c3ccccc3)nc2[C@@H]1CC1CCCCC1 [BIM46187]
- effect on LPC 18:1 (10 μM)-induced Ca2+ influx (GPCR-signaling inhibitors) (hTRPV4): not significantly altered
- effect on LPC 18:1 (10 μM)-induced Ca2+ influx (GPCR-signaling inhibitors) (hTRPV4; listed as BIM-46187): no inhibitory effects
- effect on LPC 18:1 (10 μM)-induced Ca2+ influx (GPCR-signaling inhibitors) (mouse keratinocytes): not significantly altered
- effect on LPC 18:1 (10 μM)-induced Ca2+ influx (GPCR-signaling inhibitors) (mouse keratinocytes; listed as BIM-46187): no inhibitory effects
- effect on LPC 18:1 (10 μM)-induced Ca2+ influx (GPCR-signaling inhibitors) (human keratinocytes): not significantly altered
- effect on LPC 18:1 (10 μM)-induced Ca2+ influx (GPCR-signaling inhibitors) (human keratinocytes; listed as BIM-46187): no inhibitory effects

Molecule: COc1ccc2c(c1)CC[C@@H]1[C@@H]2CC[C@]2(C)[C@@H](NCCCCCCN3C(=O)C=CC3=O)CC[C@@H]12 [U73122]
- effect on LPC 18:1 (10 μM)-induced Ca2+ influx (GPCR-signaling inhibitors) (hTRPV4): no inhibitory effects; also recorded: not significantly altered
- effect on LPC 18:1 (10 μM)-induced Ca2+ influx (GPCR-signaling inhibitors) (mouse keratinocytes): no inhibitory effects; also recorded: not significantly altered
- effect on LPC 18:1 (10 μM)-induced Ca2+ influx (GPCR-signaling inhibitors) (human keratinocytes): no inhibitory effects; also recorded: not significantly altered

Molecule: O=C1OC2(c3ccccc31)c1ccc(O)c(O)c1Oc1c2ccc(O)c1O [Gallein]
- effect on LPC 18:1 (10 μM)-induced Ca2+ influx (GPCR-signaling inhibitors) (hTRPV4): no inhibitory effects; also recorded: not significantly altered
- effect on LPC 18:1 (10 μM)-induced Ca2+ influx (GPCR-signaling inhibitors) (mouse keratinocytes): no inhibitory effects; also recorded: not significantly altered
- effect on LPC 18:1 (10 μM)-induced Ca2+ influx (GPCR-signaling inhibitors) (human keratinocytes): no inhibitory effects; also recorded: not significantly altered

Molecule: c1cc(-c2nc3ccc(OCCCN4CCCC4)cc3o2)ccc1OCCCN1CCCC1 [E6446]
- effect on scratching evoked by i.d. miR-146a (4 nmol) (TLR inhibitors) (mice [2]): not significantly altered

Molecule: Nc1ncnc2c1ncn2[C@@H]1O[C@H](COP(=O)(O)OP(=O)(O)OP(=O)(O)O)[C@@H](O)[C@H]1O [ATP, adenosine triphosphate]
- scratching behavior induced by i.d. ATP (mice [1]; i.d. 10 nmol or 100 nmol vs normal saline): not to have any pruritogenic effects; also recorded: did not elicit significant scratching behaviors

Molecule: O=C(CCN1CCN(C(=O)OCc2cc(Cl)cc(Cl)c2)CC1)c1ccc2[nH]c(=O)oc2c1 [PF8380]
- effect on LPC-induced itch (autotaxin inhibitor), WT mice (mice [2]; i.p. pretreatment 10 mg/kg, WT mice): attenuated

Molecule: O=C(O)CC1CC(c2ccccc2)=NO1 (centres unmarked) [GIT27]
- effect on scratching evoked by i.d. miR-146a (4 nmol) (TLR inhibitors) (mice [2]): not significantly altered
